Data reported in PubChem BioAssay (NCI).
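Following 48 hours of exposure in 96-well plates, responses at five concentrations were used to interpolate endpoints linearly. Here, GI50 denotes the concentration required for 50% inhibition of growth. TGI: total growth inhibition.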

How the values were obtained:
Assay in all cases: growth of human tumour cells (NCI), 48 h
[1] = test system: SNB-19 CNS
[2] = test system: IGROV1 ovarian
[3] = test system: EKVX NSCLC
[4] = test system: MOLT-4 leukemia
[5] = test system: M19-MEL melanoma
[6] = test system: DLD-1 colon
[7] = test system: COLO 205 colon
[8] = test system: PC-3 prostate
[9] = test system: T-47D breast
[10] = test system: NCI/ADR-RES ovarian

SMILES	TGI [1] [µM]	TGI [2] [µM]	TGI [3] [µM]	TGI [4] [µM]	TGI [5] [µM]	TGI [6] [µM]	TGI [7] [µM]	TGI [8] [µM]	TGI [9] [µM]	TGI [10] [µM]	GI50 [1] [µM]	GI50 [2] [µM]	GI50 [3] [µM]	GI50 [6] [µM]	GI50 [4] [µM]	GI50 [7] [µM]	GI50 [5] [µM]
Cc1cc(=O)[nH]c(NN2C(Cl)C(=O)C2c2cccc(Cl)c2)n1 (stereo unspecified)	92.6	37.1	> 100	40.7	> 100	–	–	–	–	–	–	–	–	–	–	–	–
CCOC(=O)N(c1ccccc1)N(CC)C(=O)/C(C)=N/Nc1ccc([N+](=O)[O-])cc1	34.9	33	39.8	52.6	31.2	30.7	33.5	–	–	–	–	–	–	–	–	–	–
O=c1[nH]cnc2c1nnn2CCCCCCCCCCCCn1nnc2c(=O)[nH]cnc21	54.9	> 77.8	> 82.5	> 100	> 100	> 100	> 100	> 100	> 100	> 100	–	–	–	–	–	–	–
O=C1Nc2ccccc2Nc2ccncc21	> 100	> 100	> 100	> 100	> 100	> 100	> 100	–	–	> 100	–	–	–	–	–	–	–
CC(=O)[CH-]C(=O)c1ccccc1.CC(=O)[CH-]C(=O)c1ccccc1.C[C@]12CCC(=O)C=C1CC[C@@H]1C2CC[C@@]2(C)C1CC[C@]2(C)[O-].C[C@]12CCC(=O)C=C1CC[C@@H]1C2CC[C@@]2(C)C1CC[C@]2(C)[O-].Cl.[Ti+4] (stereo partly specified)	29.3	46.1	44.7	> 100	> 100	40.9	> 100	–	–	–	14	19.3	17.3	12.2	12.5	37.6	26.5
O=C1C(CN2CCOCC2)CCCC1CN1CCOCC1 (stereo unspecified)	45.7	17.3	10.7	2.33	17.3	1.83	6.21	28.9	–	–	–	–	–	–	–	–	–
Nc1c(Cl)ncnc1NCCCNc1ncnc(Cl)c1N	> 100	> 100	> 100	> 100	> 100	> 100	> 100	–	–	–	–	–	–	–	–	–	–
Cc1c(/C=N/N(C)C)oc2c1cc(O)c1ncccc12	> 100	55.7	6.37	16.8	–	> 100	> 100	–	–	–	–	–	–	–	–	–	–
CN1c2ccccc2N(C(=O)c2ccccc2)C(CC(=O)O)c2cccn21 (stereo unspecified)	> 100	> 100	> 100	> 100	> 100	–	> 100	–	–	–	–	–	–	–	–	–	–
CCc1nc2ccc(NCCN(C)C)c3c(=O)c4ccccc4n1c23	16.5	4.82	6.78	6.28	10.4	9.88	3.44	6.44	20.8	3.38	–	–	–	–	–	–	–
COc1ccc(/C=N/n2cnc3[nH]c(C)c(Cc4ccccc4)c3c2=N)cc1	> 100	> 100	> 100	> 100	–	–	> 100	> 100	> 100	> 100	–	–	–	–	–	–	–
CC1(C)CC(=O)C2=C(C1)OC1=C(CC(C)(C)CC1=O)C2c1ccccc1[N+](=O)[O-] (stereo unspecified)	> 100	> 100	> 100	> 100	–	–	> 100	> 100	> 100	> 100	–	–	–	–	–	–	–
CC1(C)C(=O)C(C)(C)C1=S	> 100	> 100	> 100	> 100	> 100	> 100	> 100	–	–	–	–	–	–	–	–	–	–
COc1ccc(-n2sc3ncccc3c2=O)cc1	> 100	61.2	28.4	> 100	–	–	35	53.5	44.1	59.6	–	–	–	–	–	–	–
CN(C)c1cc[n+](-c2nc(/N=C(\[O-])C(F)(F)F)nc3c2ncn3C2CC(O)C(CO)O2)cc1 (stereo unspecified)	> 100	> 100	> 100	> 100	–	–	> 100	> 100	> 100	> 100	–	–	–	–	–	–	–
CCCC(CCN)(CCN)[N+](=O)[O-]	> 100	> 100	> 100	> 100	–	–	> 100	> 100	> 100	> 100	–	–	–	–	–	–	–
CC1CC(=O)N(N(C)C)C(C#N)(C#N)C1(C#N)C#N (stereo unspecified)	> 61.8	40	57.5	5.04	–	–	7.99	34.8	42.1	55	–	–	–	–	–	–	–
